Source: patent publication US20170114128A1, “USE OF TGF-BETA ANTAGONISTS OF TREAT TYPE-2 DIABETES” (ALBERT EINSTEIN COLLEGE OF MEDICINE, INC., priority 2014, published 2017)

Key:
normal C57BL/6 mice [1] = test: Hyperinsulinemic-euglycemic clamp after third-ventricle TGF-β1; type: in vivo
Text: Brain TGF-β excess increases hepatic glucose production: In physiology, blood glucose levels are balanced by glucose uptake in metabolic tissues (such as muscles) and glucose production in the liver. A hyperinsulinemic-euglycemic clamp was employed to analyze if any of these metabolic processes was relevant to the pro-diabetic effect of brain TGF-β excess. In the experiment, normal C57BL/6 mice were pre-implanted with a catheter into the jugular vein and also a cannula into the hypothalamic third ventricle. Following surgical recovery, overnight-fasted mice were injected with TGF-β1 (4 ng) using the same protocol as described in FIG. 1e, and were subjected to the clamp procedure. During the clamp period, blood glucose concentrations were maintained at approximate 120-130 mg/dl, with steady insulin infusion (4 mU kg^−1 min^−1) together with various rates of 20% glucose infusion to maintain euglycemia. […] While the basal blood insulin concentrations in TGF-β-injected mice were higher which indicated insulin resistance, constant insulin infusion in the clamp elevated the blood insulin concentrations of these mice and controls to similar levels. […] Blood glucagon concentrations were similar between TGF-β1-treated mice and controls. Therefore, the brain-liver axis mediates the pro-diabetic effect of brain TGF-β excess.
Hyperinsulinemic-euglycemic clamp. Mice that were pre-implanted with cannula in the third ventricle were anesthetized, and a catheter was inserted into the right jugular vein and crossed over from the underneath and out the back of the neck. Following surgical recovery, overnight-fasted mice were injected with TGF-β1 (4 ng) vs. vehicle, once at the beginning of fasting and the other in the following morning at four hours prior to clamp. Conscious mice were then subjected to euglycemic clamp, with the blood glucose concentrations maintained at 120-130 mg/dl for four hours, followed by steady-state human insulin infusion (4 mU kg−1 min−1) together with infusion of 20% glucose at variable rates to maintain euglycemia. During the final 1 hour of the clamp, [3-^3H] glucose and 2-deoxy-D-[1-^14C] glucose (PerkinElmer) infusions were used. Blood samples were collected from tail vein. At the end of the procedure, mice were euthanized, and various tissues were removed and quickly frozen in liquid nitrogen. Plasma insulin and glucagon concentrations were analyzed with ELISA kits (Crystal Chem. and R&D Systems).

HEK 293 cells = test: IκBα mRNA levels in HEK 293 cells after TGF-β1 treatment; type: cell-based; conditions: HEK 293 cells (data not shown)
Text: TGF-β degrades IκBα mRNA to atypically activate NF-κB: RNA SGs/PBs have the function to degrade mRNAs by targeting the AU-rich element (AUE) at the 3′ untranslated region (UTR) (36-38). […] This information led to the suspicion that TGF-β could work to degrade IκBα mRNA. […] To test if TGF-β induced IκBα mRNA decay is accountable for the glucose metabolism disorder, an experiment was designed to study if the pro-diabetic effect of brain TGF-β excess could be reversed through directly increasing hypothalamic IκBα mRNA. Using an approach which was established previously (23), a lentiviral system was employed to deliver exogenous Iκbα mRNA into the mediobasal hypothalamus of chow-fed C57BL/6 mice, and indeed, this lentivirus-delivered Iκbα mRNA prevented TGF-β1 injection from activating hypothalamic NF-κB (FIG. 5f). Metabolic analysis confirmed that this treatment attenuated the effect of TGF-β1 from impairing insulin-dependent glucose control (FIG. 5g).

normal C57BL/6 mice [2] = test: Intra-third ventricle injection of TGF-β1, GTT, ITT, food intake and body weight; type: in vivo
Protocol: Brain TGF-β excess impairs glucose tolerance: To study the metabolic effects of brain TGF-β excess, a pharmacological approach was first used by which TGF-β was delivered into the hypothalamic third ventricle of normal C57BL/6 mice via pre-implanted cannula. To optimize the dosage, different doses of TGF-β1 (0, 0.5, 1.0, and 4.0 ng) were injected, and TGF-β1 concentrations measured in the CSF at various time points post-injection. […] Based on this condition, overnight-fasted mice were given intra-third ventricle injections of TGF-β1 in these doses, one injection at night after food was removed, and the second injection in the following morning at 4 hours prior to glucose tolerance test (GTT). […] In sum, a pharmacological induction of brain TGF-β excess can acutely cause pre-diabetic changes including glucose intolerance and insulin resistance.
Animals. Tgfb1^lox/lox mice, Tgfbr2^lox/lox mice, Tgfb1^+/− mice, GFAP-Cre mice, and T1r4^−/− mice on C57BL/6 were obtained from Jackson (32,56-59) and continued to be maintained on C57BL/6. CMV-lox-stop-lox-Tgfb1 mice(30) obtained from Jackson were backcrossed into C57BL/6. POMC-Cre mice maintained on C57BL/6 were used in our previous research (20,60). All mice were housed in standard, pathogen-free animal facility with 12 h/12 h light and darkness cycles, and adult male mice were used in experiments of this work. Mice were maintained on normal chow since weaning, and for some experiments involving HFD feeding, a HFD (45% kcal fat, Research Diets, Inc.) was used when mice were two to three months old. Food intake and body weight of mice were measured using a laboratory scale. GTT was performed in mice through intraperitoneal (i.p.) injection of glucose at 2 g/kg body weight. ITT was performed in mice through i.p. injection of human recombinant insulin (Nova Nordisk) at the dose of 0.7 U/kg body weight. Blood glucose levels during GTT and ITT were measured with LifeScan® blood glucose monitoring system. All procedures were approved by the Institutional Animal Care and Use Committee of Albert Einstein College of Medicine.
Brain injection. […]

TGF-β1: transforming growth factor-β1 (Sigma), cytokine dissolved in artificial cerebrospinal fluid for third-ventricle injection
glucose infusion rate, lower than vehicle-injected mice (normal C57BL/6 mice [1]; 4 ng, clamp, insulin 4 mU kg^−1 min^−1, on average): 80% | hepatic glucose production vs control (normal C57BL/6 mice [1]; basal condition): higher | basal blood insulin concentrations (normal C57BL/6 mice [1]; basal, vs controls): higher | rates of glucose disposal vs vehicle (normal C57BL/6 mice [1]; clamp, 4 ng): similar | suppression of hepatic glucose production by insulin infusion (normal C57BL/6 mice [1]; during clamp): failed to do so | blood glucagon concentrations vs controls (normal C57BL/6 mice [1]; mouse, in vivo): similar | glucose infusion rates vs vehicle-injected mice (normal C57BL/6 mice [1]; since the first 20 min of clamp): significantly lower | IκBα mRNA levels (HEK 293 cells): notably decreased | glucose intolerance effect, comparison of doses (normal C57BL/6 mice [2]; 4 ng): slightly strongest | sensitivity of insulin in lowing blood glucose (ITT) (normal C57BL/6 mice [2]; 4 ng, third ventricle): significantly dampened | glucose tolerance in GTT (normal C57BL/6 mice [2]; each dose (0.5, 1.0, 4.0 ng), two intra-third ventricle injections, overnight-fasted): led to glucose intolerance
